# From patent US9273033B2, “Substituted pyridone derivatives as PDE10 inhibitors” (Merck Sharp & Dohme Corp., priority 2012, dated 2016)
# Target: human PDE10A2 (Homo sapiens (Human), UniProt Q9Y233)
# Test: PDE10 fluorescence polarization (IMAP FP) inhibition assay
# Assay type: biochemical
# Conditions: human PDE10A2, FAM-labeled cAMP substrate, read-out: PDE10A Ki
# Method: The activity of the compounds in accordance with the present invention as PDE10 inhibitors may be readily determined without undue experimentation using a fluorescence polarization (FP) methodology that is well known in the art (Huang, W., et al., J. Biomol Screen, 2002, 7: 215).
# In a typical experiment the PDE10 inhibitory activity of the compounds of the present invention was determined in accordance with the following experimental method. PDE10A2 was amplified from human fetal brain cDNA (Clontech, Mountain View, Calif.) using a forward primer corresponding to nucleotides 56-77 of human PDE10A2 (Accession No. AF127480, Genbank Identifier 4894716), containing a Kozak consensus sequence, and a reverse primer corresponding to nucleotides 2406-2413 of human PDE10A2 (Accession No. AF127480, Genbank Identifier 4894716). Amplification with Easy-A polymerase (Stratagene, La Jolla, Calif.) was 95° C. for 2 minutes followed by thirty three cycles of 95° C. for 40 seconds, 55° C. for 30 seconds, and 72° C. for 2 minutes 48 seconds. Final extension was 72° C. for 7 minutes. The PCR product was TA cloned into pcDNA3.2-TOPO (Invitrogen, Carlsbad, Calif.) according to standard protocol. AD293 cells with 70-80% confluency were transiently transfected with human PDE10A2/pcDNA3.2-TOPO using Lipofectamine 2000 according to manufacturer specifications (Invitrogen, Carlsbad, Calif.). Cells were harvested 48 hours post-transfection and lysed by sonication (setting 3, 10×5 sec pulses) in a buffer containing 20 mM HEPES, 1 mM EDTA and protease inhibitor cocktail (Roche). Lysate was collected by centrifugation at 75,000×g for 20 minutes. Supernatant containing the cytoplasmic fraction was used for evaluation of PDE10A2 activity. The fluorescence polarization assay for cyclic nucleotide phosphodiesterases was performed using an IMAP® FP kit supplied by Molecular Devices, Sunnyvale, Calif. (product # R8139). IMAPU technology has been applied previously to phosphodiesterase assays (Huang, W., et al., J. Biomol Screen, 2002, 7: 215). Assays were performed at room temperature in 384-well microtiter plates with an incubation volume of 20.2 μL. Solutions of test compounds were prepared in DMSO and serially diluted with DMSO to yield 8 μL of each of 10 solutions differing by 3-fold in concentration, at 32 serial dilutions per plate. 100% inhibition is determined using a known PDE10 inhibitor, which can be any compound that is present at 5,000 times its Ki value in the assay described as follows, such as papaverine (see Siuciak, et al. Neuropharmacology (2006) 51:386-396; Becker, et al. Behav Brain Res (2008) 186(2):155-60; Threlfell, et al., J Pharmacol Exp Ther (2009) 328(3):785-795), 2-{4-[pyridin-4-yl-1-(2,2,2-trifluoroethyl)-1H-pyrazol-3-yl]phenoxymethyl}quinoline succinic acid or 2-[4-(1-methyl-4-pyridin-4-yl-1H-pyrazol-3-yl)-phenoxymethyl]quinoline succinic acid (see Schmidt, et al. J Pharmacol Exp Ther (2008) 325:681-690; Threlfell, et al., J Pharmacol Exp Ther (2009) 328(3): 785-795). 0% of inhibition is determined by using DMSO (1% final concentrations).
# A Labcyte Echo 555 (Labcyte, Sunnyvale, Calif.) is used to dispense 200 nL from each well of the titration plate to the 384 well assay plate. A solution of enzyme (1/1600 dilution from aliquots; sufficient to produce 20% substrate conversion) and a separate solution of FAM-labeled cAMP PDE from Molecular Devices (product # R7506), at a final concentration of 50 nM are made in the assay buffer (10 mM Tris HCl, pH 7.2, 10 mM MgCl2, 0.05% NaN3 0.01% Tween-20, and 1 mM DTT). The enzyme and the substrate are then added to the assay plates in two consecutive additions of 10 μL, and then shaken to mix. The reaction is allowed to proceed at room temperature for 30 minutes. A binding solution is then made from the kit components, comprised of 80% Solution A, 20% Solution B and binding reagent at a volume of 1/600 the total binding solution.
# Sequence of human PDE10A2 (Q9Y233 267-1055): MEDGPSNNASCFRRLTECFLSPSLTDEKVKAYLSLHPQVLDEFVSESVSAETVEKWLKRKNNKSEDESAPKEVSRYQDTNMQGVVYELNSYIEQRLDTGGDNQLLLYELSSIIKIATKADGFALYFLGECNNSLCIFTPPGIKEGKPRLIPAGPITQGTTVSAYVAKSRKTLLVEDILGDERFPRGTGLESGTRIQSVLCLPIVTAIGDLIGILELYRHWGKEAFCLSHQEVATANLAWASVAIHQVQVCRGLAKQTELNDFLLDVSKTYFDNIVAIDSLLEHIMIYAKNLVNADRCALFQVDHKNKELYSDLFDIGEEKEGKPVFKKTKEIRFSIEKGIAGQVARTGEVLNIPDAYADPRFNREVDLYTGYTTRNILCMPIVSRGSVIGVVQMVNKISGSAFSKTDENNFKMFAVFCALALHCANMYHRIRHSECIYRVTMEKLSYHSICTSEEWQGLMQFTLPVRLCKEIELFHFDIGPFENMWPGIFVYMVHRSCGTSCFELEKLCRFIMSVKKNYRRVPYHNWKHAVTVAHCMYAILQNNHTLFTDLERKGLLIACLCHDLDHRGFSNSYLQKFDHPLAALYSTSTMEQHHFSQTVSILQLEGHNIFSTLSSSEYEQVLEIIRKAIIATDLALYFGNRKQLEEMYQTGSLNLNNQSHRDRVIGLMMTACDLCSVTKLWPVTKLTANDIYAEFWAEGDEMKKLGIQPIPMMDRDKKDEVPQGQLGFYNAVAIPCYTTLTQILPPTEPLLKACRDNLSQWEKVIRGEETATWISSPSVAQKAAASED
row,Compound,Ki
1,"COC(=O)Cn1cc(-c2cnc(C)nc2OC[C@H]2C[C@@H]2c2ccc(OC)cn2)ccc1=O [Example 47, methyl 2-(5-(4-(((1S,2S)-2-(5-methoxypyridin-2-yl)cyclopropyl)methoxy)-2-methylpyrimidin-5-yl)-2-oxopyridin-1(2H)-yl)acetate]",3.65 nM
2,"[2H]C([2H])([2H])n1cc(-c2cnc(C)nc2OC[C@H]2C[C@@H]2c2ccc(C)cn2)ccc1=O [Example 48, 1-methyl-5-(2-methyl-4-(((1S,2S)-2-(5-methylpyridin-2-yl)cyclopropyl)methoxy)pyrimidin-5-yl)pyridin-2(1H)-one]",1.7 nM
3,"Cc1ccc([C@H]2C[C@@H]2COc2nc(C)ncc2-c2ccc(=O)n(CC3CC3)c2)nc1 [Example 49, 1-(cyclopropylmethyl)-5-(2-methyl-4-(((1S,2S)-2-(5-methylpyridin-2-yl)cyclopropyl)methoxy)pyrimidin-5-yl)pyridin-2(1H)-one]",0.983 nM
4,"[2H]C([2H])([2H])n1cc(-c2cnc(C)nc2OC[C@H]2C[C@@H]2c2ccc(OC)cn2)ccc1=O [Example 51, 5-(4-(((1S,2S)-2-(5-methoxypyridin-2-yl)cyclopropyl)methoxy)-2-methylpyrimidin-5-yl)-1-methylpyridin-2(1H)-one]",0.946 nM
5,"COc1ccc([C@H]2C[C@@H]2COc2nc(C)ncc2-c2ccc(=O)n(CC(F)(F)F)c2)nc1 [Example 52, 5-(4-(((1S,2S)-2-(5-methoxypyridin-2-yl)cyclopropyl)methoxy)-2-methylpyrimidin-5-yl)-1-(2,2,2-trifluoroethyl)pyridin-2(1H)-one]",3.11 nM
6,"COc1ccc([C@H]2C[C@@H]2COc2nc(C)ncc2-c2ccc(=O)n(CC3CC3)c2)nc1 [Example 53, 1-(cyclopropylmethyl)-5-(4-(((1S,2S)-2-(5-methoxypyridin-2-yl)cyclopropyl)methoxy)-2-methylpyrimidin-5-yl)pyridin-2(1H)-one]",0.377 nM
7,"COc1cc(-c2cnc(C)nc2OC[C@H]2C[C@@H]2c2ccc3c(n2)CCC3)cn(C)c1=O [Example 54, 5-(4-(((1S,2S)-2-(6,7-dihydro-5H-cyclopenta[b]pyridin-2-yl)cyclopropyl)methoxy)-2-methylpyrimidin-5-yl)-3-methoxy-1-methylpyridin-2(1H)-one]",0.045 nM
8,"CCc1cc(-c2cnc(C)nc2OC[C@H]2C[C@@H]2c2ccc(C)cn2)cn(C)c1=O [Example 55, 3-ethyl-1-methyl-5-(2-methyl-4-(((1S,2S)-2-(5-methylpyridin-2-yl)cyclopropyl)methoxy)pyrimidin-5-yl)pyridin-2(1H)-one]",0.347 nM
9,"COc1cc(-c2cnc(C)nc2OC[C@H]2C[C@@H]2c2ccc3ccccc3n2)cn(C)c1=O [Example 56, 3-methoxy-1-methyl-5-(2-methyl-4-(((1S,2S)-2-(quinolin-2-yl)cyclopropyl)methoxy)pyrimidin-5-yl)pyridin-2(1H)-one]",0.004 nM
10,"COc1cc(-c2cnc(C)nc2OC[C@H]2C[C@@H]2c2ccc(C)cn2)cn(C)c1=O [Example 57, 3-methoxy-1-methyl-5-(2-methyl-4-(((1S,2S)-2-(5-methylpyridin-2-yl)cyclopropyl)methoxy)pyrimidin-5-yl)pyridin-2(1H)-one]",0.349 nM
11,"Cc1ncc(-c2ccc(=O)n(C)c2C)c(OC[C@H]2C[C@@H]2c2ccc3c(n2)CCC3)n1 [Example 58, 5-(4-(((1S,2S)-2-(6,7-dihydro-5H-cyclopenta[b]pyridin-2-yl)cyclopropyl)methoxy)-2-methylpyrimidin-5-yl)-1,6-dimethylpyridin-2(1H)-one]",0.481 nM
12,"Cc1ccc([C@H]2C[C@@H]2COc2nc(C)ncc2-c2cc(C#N)c(=O)n(C)c2C)nc1 [Example 59, 1,6-dimethyl-5-(2-methyl-4-(((1S,2S)-2-(5-methylpyridin-2-yl)cyclopropyl)methoxy)pyrimidin-5-yl)-2-oxo-1,2-dihydropyridine-3-carbonitrile]",0.426 nM
13,"COc1ccc([C@H]2C[C@@H]2COc2nc(C)ncc2-c2cc(C#N)c(=O)n(C)c2C)nc1 [Example 60, 5-(4-(((1S,2S)-2-(5-methoxypyridin-2-yl)cyclopropyl)methoxy)-2-methylpyrimidin-5-yl)-1,6-dimethyl-2-oxo-1,2-dihydropyridine-3-carbonitrile]",0.117 nM
14,"COc1ccc([C@H]2C[C@@H]2COc2nc(C)ncc2-c2cn(C)c(=O)cn2)nc1 [Example 61, 5-(4-(((1S,2S)-2-(5-methoxypyridin-2-yl)cyclopropyl)methoxy)-2-methylpyrimidin-5-yl)-1-methylpyrazin-2(1H)-one]",16.7 nM
15,"Cc1ccc([C@H]2C[C@@H]2COc2nc(C)ncc2-c2cn(C)c(=O)cn2)nc1 [Example 62, 1-methyl-5-(2-methyl-4-(((1S,2S)-2-(5-methylpyridin-2-yl)cyclopropyl)methoxy)pyrimidin-5-yl)pyrazin-2(1H)-one]",12.9 nM
16,"COc1ccc([C@H]2C[C@@H]2COc2nc(C)ncc2-c2ccc(=O)[nH]n2)nc1 [Example 63, 6-(4-(((1S,2S)-2-(5-methoxypyridin-2-yl)cyclopropyl)methoxy)-2-methylpyrimidin-5-yl)pyridazin-3(2H)-one]",4.42 nM
17,"COc1ccc([C@H]2C[C@@H]2COc2nc(C)ncc2-c2ccc(=O)n(C)n2)nc1 [Example 64, 6-(4-(((1S,2S)-2-(5-methoxypyridin-2-yl)cyclopropyl)methoxy)-2-methylpyrimidin-5-yl)-2-methylpyridazin-3(2H)-one]",2.83 nM
18,"Cc1ccc([C@H]2C[C@@H]2COc2nc(C)ncc2-c2cc(C)c(=O)n(C)n2)nc1 [Example 65, 2,4-dimethyl-6-(2-methyl-4-(((1S,2S)-2-(5-methylpyridin-2-yl)cyclopropyl)methoxy)pyrimidin-5-yl)pyridazin-3(2H)-one]",1.83 nM
19,"COc1ccc([C@H]2C[C@@H]2COc2nc(C)ncc2-c2cc(C)c(=O)n(C)n2)nc1 [Example 66, 6-(4-(((1S,2S)-2-(5-methoxypyridin-2-yl)cyclopropyl)methoxy)-2-methylpyrimidin-5-yl)-2,4-dimethylpyridazin-3(2H)-one]",1.23 nM
20,"COc1ccc([C@H]2C[C@@H]2COc2nc(C)ncc2-c2nn(C)c(=O)cc2C)nc1 [Example 67, 6-(4-(((1S,2S)-2-(5-methoxypyridin-2-yl)cyclopropyl)methoxy)-2-methylpyrimidin-5-yl)-2,5-dimethylpyridazin-3(2H)-one]",5.55 nM
21,"Cc1ccc([C@H]2C[C@@H]2COc2nc(C)ncc2-c2nn(C)c(=O)cc2C)nc1 [Example 68, 2,5-dimethyl-6-(2-methyl-4-(((1S,2S)-2-(5-methylpyridin-2-yl)cyclopropyl)methoxy)pyrimidin-5-yl)pyridazin-3(2H)-one]",9.68 nM
22,"CCn1ccc(-c2cnc(C)nc2OC[C@H]2C[C@@H]2c2ccc(C)cn2)cc1=O [Example 69, 1-ethyl-4-(2-methyl-4-(((1S,2S)-2-(5-methylpyridin-2-yl)cyclopropyl)methoxy)pyrimidin-5-yl)pyridin-2(1H)-one]",1.43 nM
23,"COc1ccc([C@H]2C[C@@H]2COc2nc(C)ncc2-c2ccn(C)c(=O)c2)nc1 [Example 70, 4-(4-(((1S,2S)-2-(5-methoxypyridin-2-yl)cyclopropyl)methoxy)-2-methylpyrimidin-5-yl)-1-methylpyridin-2(1H)-one]",1.25 nM
